This passage reports hydrophilicity/water solubility results from patent US20240050421A1, “PHARMACEUTICAL FORMULATIONS OF A PHENOLIC TRPV1 AGONIST PRODRUG” (Concentric Analgesics, Inc., priority 2020, published 2024).

The nature of this data set: Water solubility / hydrophilicity compared with capsaicin. Conditions: general statement, no method or figures given. Format: physicochemical.

Regarding `CNCC1CCCCN1C(=O)Oc1ccc(CNC(=O)CCCC/C=C/C(C)C)cc1OC.Cl` (stereo not shown) [Compound 1, (E)-2-methoxy-4-((8-methylnon-6-enamido)methyl)phenyl 2-((methylamino)methyl)piperidine-1-carboxylate], the hydrophilicity/water solubility result is given as “significantly higher hydrophilicity/water solubility than capsaicin”.
